Measurements: patent publication US20250145606A1 (Arcus Biosciences, Inc., priority 2023, published 2025)

What was measured:
CSF1R = CSF1R (Homo sapiens (Human), UniProt P07333); assay: Inhibition of CSF1R kinase activity (HTRF KinEASE-TK); details: biochemical, HTRF KinEASE-TK
Method in brief: (§1)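 Phosphorylation of biotinylated TK peptide read by HTRF (665/620 nm ratio) after 120 min at rt, following 1 h enzyme–compound preincubation. ATP (2× mix): 20 μM CSF1R, 16 μM c-Kit, 40 μM PDGFRβ, 1 μM PDGFRα; MgCl2 10 mM except c-Kit 5 mM. 22-point 1:2 titration; four-parameter IC50.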

[1] = test system: Phospho-KIT (Y703) in M07e cells; assay: Phospho-KIT (Y703) cellular assay in M07e cells; format: cell-based; details: M-07e; Phospho-KIT (Y703), M07e cells; read-out: M07e Cell IC50
Method: Phospho-KIT (Y703) Cellular Assay in M07e Cells
The day prior to assay, M07e cells (DSMZ, catalog #ACC 104) were serum starved. Cells were centrifuged and cell pellet resuspended in OptiMEM (Gibco, catalog #31985062) to a density of 1×10^6-2.5×10^6 cells per mL. Cells were then incubated overnight at 5% CO2 and 37° C. in an appropriately sized flask. On the day of the experiment, an 11 point, half log titration of test compound was pre-dispensed into 96-well round bottom polypropylene plates (Corning, catalog #3365). The serum starved M07e cells were centrifuged and resuspended to a cell density of 1×10^6 cells per mL with DPBS (Gibco, catalog #14190-144). Live/Dead Green Fixable viability dye (Invitrogen, catalog #L34970) was added as 1 μL/1 mL of cell suspension. Cells were then incubated in the dark at 4° C. for 30 min. Cells were washed by centrifugation and resuspension with DPBS+0.5% BSA (Gemini Bio Products, catalog #700110/100, 30% BSA solution). Cells were resuspended, separated into two equal volumes and again centrifuged. Cell pellets were resuspended with OptiMEM™ to a cell density of 1×10^6 cells per mL. Cells were then added to the appropriate compound plate at 100,000 cells per well in 100 μL and mixed. Plates were incubated at 5% CO2 and 37° C. for 50 min. Stem Cell Factor, SCF (R&D Systems, #255-SC/CF) was diluted in OptiMEM to 1 μg/mL and added to all wells as 10 μL for a final concentration of 90.9 ng/mL. Plates were incubated at 5% CO2 and 37° C. for 10 min. Incubation was stopped by addition of 110 μL 4% paraformaldehyde solution in PBS (Life Technologies, catalog #J19943.K2). Plates were incubated at rt for at least 15 min. Plates were then centrifuged and supernatant removed by flicking. Cells were washed once by resuspension in 200 μL DPBS+0.5% BSA, centrifuged, and supernatant removed by flicking. Cells were resuspended in 100 μL 1X Permeabilization buffer (Invitrogen, catalog #88882400) and plates incubated at rt for 30 min. Plates were centrifuged, supernatant removed by flicking, and cells resuspended in 50 μL primary antibody, anti-phospho-c-KIT (Tyr703) (Cell Signaling, catalog #3073), diluted to 1 μg/mL with permeabilization buffer. Plates were incubated at rt for 1 h. Plates were centrifuged, supernatant removed, and cells resuspended with 200 μL DPBS+0.5% BSA. Plates were again centrifuged, supernatant removed by flicking, and cells resuspended in 100 μL secondary antibody, goat anti-rabbit AlexaFluor647 (AF647) (Invitrogen, catalog #A21244) diluted to 1 μg/mL with DPBS+0.5% BSA. Plates were incubated at rt for 30 min. followed by centrifugation, supernatant removal, and cell resuspension with 200 μL DPBS+0.5% BSA. Cells were washed again by centrifugation, supernatant removal, and cell resuspension with 200 μL DPBS+0.5% BSA. Samples were then read by flow cytometry. The Forward: Side scatter plot was gated and that population was gated for live cells based on the Live/Dead Green staining. The geometric mean of AF647 of the live cell population was recorded. Percentage maximum activity in each test well was calculated based on DMSO (100% activity) and positive control treated cell wells (0% activity). The potencies (IC50 values) of test compounds were determined using a standard 4-parameter non-linear regression fit.

PDGFRβ = PDGFRβ (Homo sapiens (Human), UniProt P09619); assay: Inhibition of PDGFRβ kinase activity (HTRF KinEASE-TK); details: biochemical, HTRF KinEASE-TK
Sequence of PDGFRβ (P09619 33-1106): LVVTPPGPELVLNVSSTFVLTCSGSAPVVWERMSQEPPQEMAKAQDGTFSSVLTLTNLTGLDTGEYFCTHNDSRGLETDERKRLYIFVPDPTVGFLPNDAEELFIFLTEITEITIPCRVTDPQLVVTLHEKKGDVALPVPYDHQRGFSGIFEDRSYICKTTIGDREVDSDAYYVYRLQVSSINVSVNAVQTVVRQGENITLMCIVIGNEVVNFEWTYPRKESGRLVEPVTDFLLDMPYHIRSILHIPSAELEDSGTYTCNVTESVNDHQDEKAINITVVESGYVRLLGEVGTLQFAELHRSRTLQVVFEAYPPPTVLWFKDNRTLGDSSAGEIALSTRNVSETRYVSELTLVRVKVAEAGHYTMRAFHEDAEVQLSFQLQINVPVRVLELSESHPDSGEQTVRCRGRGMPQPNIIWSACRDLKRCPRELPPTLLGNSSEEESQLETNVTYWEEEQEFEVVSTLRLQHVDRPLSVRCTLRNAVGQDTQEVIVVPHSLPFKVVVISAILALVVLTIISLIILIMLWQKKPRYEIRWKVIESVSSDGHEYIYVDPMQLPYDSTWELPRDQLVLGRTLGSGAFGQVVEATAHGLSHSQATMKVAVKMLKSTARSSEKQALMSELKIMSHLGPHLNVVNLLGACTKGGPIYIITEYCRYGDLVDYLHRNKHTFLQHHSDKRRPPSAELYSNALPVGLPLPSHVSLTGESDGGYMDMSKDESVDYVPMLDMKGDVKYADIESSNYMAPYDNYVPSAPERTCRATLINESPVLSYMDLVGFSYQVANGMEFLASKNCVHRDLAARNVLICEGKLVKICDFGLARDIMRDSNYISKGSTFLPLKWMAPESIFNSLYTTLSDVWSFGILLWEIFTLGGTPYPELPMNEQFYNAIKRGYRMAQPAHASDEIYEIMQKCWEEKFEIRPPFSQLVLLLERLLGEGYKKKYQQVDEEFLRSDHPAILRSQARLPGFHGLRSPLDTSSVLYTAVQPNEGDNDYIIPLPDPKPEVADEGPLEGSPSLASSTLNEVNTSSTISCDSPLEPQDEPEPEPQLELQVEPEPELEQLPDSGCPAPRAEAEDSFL
Method in brief: as §1

c-Kit = c-Kit (Homo sapiens (Human), UniProt P10721); assay: Inhibition of c-Kit kinase activity (HTRF KinEASE-TK); format: biochemical; details: biochemical, HTRF KinEASE-TK
Sequence of c-Kit (P10721 26-976): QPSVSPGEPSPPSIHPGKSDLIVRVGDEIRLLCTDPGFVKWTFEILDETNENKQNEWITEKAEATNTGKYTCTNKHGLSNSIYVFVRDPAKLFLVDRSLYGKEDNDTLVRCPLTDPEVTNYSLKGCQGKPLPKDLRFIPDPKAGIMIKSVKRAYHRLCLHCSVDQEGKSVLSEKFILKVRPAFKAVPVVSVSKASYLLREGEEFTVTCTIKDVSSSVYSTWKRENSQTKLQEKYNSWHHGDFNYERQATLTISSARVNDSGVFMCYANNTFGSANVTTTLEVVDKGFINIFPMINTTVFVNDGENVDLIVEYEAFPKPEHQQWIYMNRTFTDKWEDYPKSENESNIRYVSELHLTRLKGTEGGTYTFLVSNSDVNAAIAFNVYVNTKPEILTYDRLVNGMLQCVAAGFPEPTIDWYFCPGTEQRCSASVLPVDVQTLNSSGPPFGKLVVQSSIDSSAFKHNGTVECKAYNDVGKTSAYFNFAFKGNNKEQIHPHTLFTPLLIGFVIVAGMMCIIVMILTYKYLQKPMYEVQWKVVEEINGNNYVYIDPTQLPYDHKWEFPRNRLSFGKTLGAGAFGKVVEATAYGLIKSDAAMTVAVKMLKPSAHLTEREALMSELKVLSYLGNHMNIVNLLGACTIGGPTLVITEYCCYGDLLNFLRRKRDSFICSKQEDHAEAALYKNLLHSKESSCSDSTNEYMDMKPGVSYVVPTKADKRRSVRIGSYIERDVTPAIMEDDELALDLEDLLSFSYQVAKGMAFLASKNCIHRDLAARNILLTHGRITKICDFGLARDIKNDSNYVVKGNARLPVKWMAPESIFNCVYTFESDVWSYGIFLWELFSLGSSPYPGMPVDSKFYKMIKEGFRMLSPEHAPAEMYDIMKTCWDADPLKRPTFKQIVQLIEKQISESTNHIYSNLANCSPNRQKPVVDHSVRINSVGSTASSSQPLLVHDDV
Method in brief: as §1

PDGFRα = PDGFRα (Homo sapiens (Human), UniProt P16234); assay: Inhibition of PDGFRα kinase activity (HTRF KinEASE-TK); details: biochemical, HTRF KinEASE-TK
Sequence of PDGFRα (P16234 24-1089): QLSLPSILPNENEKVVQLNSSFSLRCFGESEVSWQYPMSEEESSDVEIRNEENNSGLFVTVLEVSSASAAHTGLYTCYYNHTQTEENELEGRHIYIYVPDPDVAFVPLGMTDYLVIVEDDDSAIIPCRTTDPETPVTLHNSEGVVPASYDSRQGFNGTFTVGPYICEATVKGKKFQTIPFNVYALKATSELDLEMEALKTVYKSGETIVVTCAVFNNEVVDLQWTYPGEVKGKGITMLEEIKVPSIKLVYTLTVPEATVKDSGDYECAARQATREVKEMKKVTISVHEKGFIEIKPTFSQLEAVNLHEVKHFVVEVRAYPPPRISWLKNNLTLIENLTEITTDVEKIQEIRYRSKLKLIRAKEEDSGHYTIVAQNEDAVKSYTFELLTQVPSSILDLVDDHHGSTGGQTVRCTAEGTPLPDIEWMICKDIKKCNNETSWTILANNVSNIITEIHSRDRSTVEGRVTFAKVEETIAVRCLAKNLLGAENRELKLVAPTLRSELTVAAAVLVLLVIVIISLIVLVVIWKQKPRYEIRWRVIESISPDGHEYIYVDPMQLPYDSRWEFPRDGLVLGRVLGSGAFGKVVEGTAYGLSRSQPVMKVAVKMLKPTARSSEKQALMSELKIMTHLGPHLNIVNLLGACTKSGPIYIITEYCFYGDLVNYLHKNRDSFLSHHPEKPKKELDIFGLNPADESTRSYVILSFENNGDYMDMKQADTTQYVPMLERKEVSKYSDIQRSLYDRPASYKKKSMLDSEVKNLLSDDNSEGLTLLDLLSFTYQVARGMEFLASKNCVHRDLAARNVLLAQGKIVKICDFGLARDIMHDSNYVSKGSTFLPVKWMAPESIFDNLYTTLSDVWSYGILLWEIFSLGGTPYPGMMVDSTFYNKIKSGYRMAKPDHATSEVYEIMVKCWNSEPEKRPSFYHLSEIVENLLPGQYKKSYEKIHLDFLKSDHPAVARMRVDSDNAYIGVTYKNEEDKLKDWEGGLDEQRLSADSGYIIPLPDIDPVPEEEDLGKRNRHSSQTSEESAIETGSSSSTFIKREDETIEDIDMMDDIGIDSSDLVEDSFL
Method in brief: as §1

Sequence of CSF1R (P07333 20-972): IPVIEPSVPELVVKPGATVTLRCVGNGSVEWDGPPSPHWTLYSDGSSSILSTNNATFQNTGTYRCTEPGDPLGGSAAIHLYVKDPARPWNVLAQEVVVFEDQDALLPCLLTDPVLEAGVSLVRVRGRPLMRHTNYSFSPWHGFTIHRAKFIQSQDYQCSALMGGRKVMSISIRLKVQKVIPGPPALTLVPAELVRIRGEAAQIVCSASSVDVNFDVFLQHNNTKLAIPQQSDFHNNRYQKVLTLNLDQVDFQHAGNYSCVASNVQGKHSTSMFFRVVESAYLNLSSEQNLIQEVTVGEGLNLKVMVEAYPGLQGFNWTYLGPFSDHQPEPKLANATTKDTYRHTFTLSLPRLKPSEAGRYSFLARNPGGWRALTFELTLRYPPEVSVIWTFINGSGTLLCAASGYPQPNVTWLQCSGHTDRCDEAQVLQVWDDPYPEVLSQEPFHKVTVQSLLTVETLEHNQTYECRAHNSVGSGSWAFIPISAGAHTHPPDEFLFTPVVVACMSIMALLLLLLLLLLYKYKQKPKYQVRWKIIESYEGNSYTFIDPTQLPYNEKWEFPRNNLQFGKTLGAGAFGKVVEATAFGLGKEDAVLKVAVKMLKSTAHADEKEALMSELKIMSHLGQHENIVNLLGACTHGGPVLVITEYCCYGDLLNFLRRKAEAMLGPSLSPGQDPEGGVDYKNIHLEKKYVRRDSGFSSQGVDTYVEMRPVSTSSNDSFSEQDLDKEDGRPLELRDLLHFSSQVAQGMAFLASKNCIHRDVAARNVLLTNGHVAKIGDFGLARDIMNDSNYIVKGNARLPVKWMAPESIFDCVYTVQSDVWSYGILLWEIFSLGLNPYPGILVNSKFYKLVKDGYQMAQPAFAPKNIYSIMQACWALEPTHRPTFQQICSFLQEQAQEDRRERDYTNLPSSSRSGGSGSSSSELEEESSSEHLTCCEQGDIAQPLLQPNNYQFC

IC50 (CSF1R) [nM]	IC50 [1] [nM]	IC50 (PDGFRβ) [nM]	IC50 (c-Kit) [nM]	IC50 (PDGFRα) [nM]	SMILES
> 1000	< 100	> 1000	< 100	> 1000	Cc1ncc(C(=O)Nc2cc(C(=O)Nc3cnc(N4CCC[C@H]4C)cn3)c(F)cc2C)s1 [Example 84, N-(5-{N-5-[(R)-2-methyl-1-pyrrolidinyl]-2-pyrazinylcarbamoyl}-4-fluoro-2-tolyl)-2-methyl-1,3-thiazole-5-carboxamide]
> 1000	< 100	> 1000	< 100	> 1000	Cc1ncc(C(=O)Nc2cc(C(=O)Nc3cnc(N4CCCC4)cn3)c(F)cc2C)s1 [Example 85, N-{5-[N-5-(1-pyrrolidinyl)-2-pyrazinylcarbamoyl]-4-fluoro-2-tolyl}-2-methyl-1,3-thiazole-5-carboxamide]
> 1000	100 to 1000	> 1000	100 to 1000	> 1000	Cc1ncc(C(=O)Nc2cc(C(=O)Nc3cnc(OCC4CC4)cn3)c(F)cc2C)s1 [Example 88, N-{5-[N-5-(cyclopropylmethoxy)-2-pyrazinylcarbamoyl]-4-fluoro-2-tolyl}-2-methyl-1,3-thiazole-5-carboxamide]
> 1000	100 to 1000	> 1000	< 100	> 1000	COC[C@H]1CCCN1c1cnc(NC(=O)c2cc(NC(=O)c3cnc(C)s3)c(C)cc2F)cn1 [Example 90, N-(5-{N-5-[(R)-2-(methoxymethyl)-1-pyrrolidinyl]-2-pyrazinylcarbamoyl}-4-fluoro-2-tolyl)-2-methyl-1,3-thiazole-5-carboxamide]
> 1000	< 100	> 1000	< 100	> 1000	Cc1ncc(C(=O)Nc2cc(C(=O)Nc3cnc(N4CCC(F)(F)C4)cn3)c(F)cc2C)s1 [Example 92, N-[5-[[5-(3,3-difluoropyrrolidin-1-yl)pyrazin-2-yl]carbamoyl]-4-fluoro-2-methylphenyl]-2-methyl-1,3-thiazole-5-carboxamide]
> 1000	< 100	> 1000	< 100	> 1000	Cc1ncc(C(=O)Nc2cc(C(=O)Nc3cnc(N4CC[C@H](F)C4)cn3)c(F)cc2C)s1 [Example 93, N-[4-fluoro-5-[[5-[(3S)-3-fluoropyrrolidin-1-yl]pyrazin-2-yl]carbamoyl]-2-methylphenyl]-2-methyl-1,3-thiazole-5-carboxamide]
> 1000	< 100	> 1000	< 100	> 1000	Cc1ncc(C(=O)Nc2cc(C(=O)Nc3cnc(N4CC[C@@H](F)C4)cn3)c(F)cc2C)s1 [Example 94, N-[4-fluoro-5-[[5-[(3R)-3-fluoropyrrolidin-1-yl]pyrazin-2-yl]carbamoyl]-2-methylphenyl]-2-methyl-1,3-thiazole-5-carboxamide]
> 1000	< 100	> 1000	< 100	> 1000	Cc1ncc(C(=O)Nc2cc(C(=O)Nc3cnc(N4CCC[C@H]4C(F)(F)F)cn3)c(F)cc2C)s1 [Example 95, N-[4-fluoro-2-methyl-5-[[5-[(2S)-2-(trifluoromethyl)pyrrolidin-1-yl]pyrazin-2-yl]carbamoyl]phenyl]-2-methyl-1,3-thiazole-5-carboxamide]
> 1000	100 to 1000	> 1000	< 100	> 1000	COC[C@@H]1CCCN1c1cnc(NC(=O)c2cc(NC(=O)c3cnc(C)s3)c(C)cc2F)cn1 [Example 97, N-[4-fluoro-5-[[5-[(2S)-2-(methoxymethyl)pyrrolidin-1-yl]pyrazin-2-yl]carbamoyl]-2-methylphenyl]-2-methyl-1,3-thiazole-5-carboxamide]

Continued, compound first:

SMILES	IC50 (CSF1R) [nM]	IC50 [1] [nM]	IC50 (PDGFRβ) [nM]	IC50 (c-Kit) [nM]	IC50 (PDGFRα) [nM]
Cc1ncc(C(=O)Nc2cc(C(=O)NCc3ccccc3F)c(F)cc2C)s1 [Example 51, N-(4-fluoro-5-((2-fluorobenzyl)carbamoyl)-2-methylphenyl)-2-methylthiazole-5-carboxamide]	> 1000	< 100	> 1000	100 to 1000	> 1000
Cc1ncc(C(=O)Nc2cc(C(=O)Nc3cccc(CC(F)(F)F)n3)c(F)cc2C)s1 [Example 52, N-[4-fluoro-2-methyl-5-[[6-(2,2,2-trifluoroethyl)pyridin-2-yl]carbamoyl]phenyl]-2-methyl-1,3-thiazole-5-carboxamide]	> 1000	< 100	> 1000	< 100	> 1000
Cc1ncc(C(=O)Nc2cc(C(=O)Nc3cnc(OC[C@@H]4CC4(F)F)cn3)c(F)cc2C)s1 [Example 58, N-[5-[[5-[[(1S)-2,2-difluorocyclopropyl]methoxy]pyrazin-2-yl]carbamoyl]-4-fluoro-2-methylphenyl]-2-methyl-1,3-thiazole-5-carboxamide]	> 1000	< 100	> 1000	< 100	> 1000
Cc1ncc(C(=O)Nc2cc(C(=O)Nc3ccn(CC4CC4)n3)c(F)cc2C)s1 [Example 70, N-[5-[[1-(cyclopropylmethyl)pyrazol-3-yl]carbamoyl]-4-fluoro-2-methylphenyl]-2-methyl-1,3-thiazole-5-carboxamide]	> 1000	< 100	> 1000	< 100	> 1000
Cc1ncc(C(=O)Nc2cc(C(=O)Nc3cnc(N4CC(O)C4)cn3)c(F)cc2C)s1 [Example 71, N-(4-fluoro-5-((5-(3-hydroxyazetidin-1-yl)pyrazin-2-yl)carbamoyl)-2-methylphenyl)-2-methylthiazole-5-carboxamide]	> 1000	< 100	> 1000	< 100	> 1000
Cc1ncc(C(=O)Nc2cc(C(=O)Nc3cnc(N4CC[C@@H](O)C4)cn3)c(F)cc2C)s1 [Example 72, (R)—N-(4-fluoro-5-((5-(3-hydroxypyrrolidin-1-yl)pyrazin-2-yl)carbamoyl)-2-methylphenyl)-2-methylthiazole-5-carboxamide]	> 1000	< 100	> 1000	< 100	> 1000
COC1CN(c2cnc(NC(=O)c3cc(NC(=O)c4cnc(C)s4)c(C)cc3F)cn2)C1 [Example 73, N-(4-fluoro-5-((5-(3-methoxyazetidin-1-yl)pyrazin-2-yl)carbamoyl)-2-methylphenyl)-2-methylthiazole-5-carboxamide]	> 1000	< 100	> 1000	< 100	> 1000
CO[C@@H]1CCN(c2cnc(NC(=O)c3cc(NC(=O)c4cnc(C)s4)c(C)cc3F)cn2)C1 [Example 74, (R)—N-(4-fluoro-5-((5-(3-methoxypyrrolidin-1-yl)pyrazin-2-yl)carbamoyl)-2-methylphenyl)-2-methylthiazole-5-carboxamide]	> 1000	< 100	> 1000	< 100	> 1000
